Data as given in article PMC9100779, “Simple and Expedient Access to Novel Fluorinated Thiazolo- and Oxazolo[3,2-a]pyrimidin-7-one Derivatives and Their Functionalization via Palladium-Catalyzed Reactions” (Molecules, 2022).

Target: T1, human monoamine oxidase A (hMAO-A) (Homo sapiens, UniProt P21397)
T1 construct: gene MAOA
T1 sequence (P21397 1-527): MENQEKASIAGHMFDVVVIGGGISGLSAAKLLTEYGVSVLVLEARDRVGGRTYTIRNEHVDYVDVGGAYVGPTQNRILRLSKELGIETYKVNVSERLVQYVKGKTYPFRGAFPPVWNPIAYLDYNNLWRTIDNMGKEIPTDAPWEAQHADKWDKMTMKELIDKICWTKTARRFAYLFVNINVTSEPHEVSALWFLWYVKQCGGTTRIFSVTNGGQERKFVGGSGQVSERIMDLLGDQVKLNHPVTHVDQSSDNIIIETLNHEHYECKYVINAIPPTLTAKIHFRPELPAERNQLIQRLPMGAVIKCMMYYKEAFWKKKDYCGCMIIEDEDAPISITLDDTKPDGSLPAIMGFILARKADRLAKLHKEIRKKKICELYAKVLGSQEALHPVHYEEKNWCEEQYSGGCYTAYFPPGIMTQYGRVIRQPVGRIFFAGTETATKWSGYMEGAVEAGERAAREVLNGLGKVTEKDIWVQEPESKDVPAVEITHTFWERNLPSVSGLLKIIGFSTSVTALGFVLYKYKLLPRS
Assay: in vitro hMAO-A enzyme inhibition assay with p-tyramine as substrate, serial dilution
Format: biochemical

O=c1cc(C(F)(F)c2ccc(Br)cc2)n2cc(Br)sc2n1 [3g, 2-Bromo-5-[(4-bromophenyl)difluoromethyl]-7H-thiazolo[3,2-a]pyrimidin-7-one]
IC50: 54.1 µM
